Data published in US10898436B2, “Nanoparticle compositions for generation of regulatory T cells and treatment of autoimmune diseases and other chronic inflammatory conditions” (Topas Therapeutics GmbH, priority 2011, dated 2021).
No end group written: not given here.

Columns and labels:
CD4+CD25− T cells = assay: Generation of Treg cells from CD4+CD25− non-regulatory T cells by antigen presenting cells; type: cell-based, mouse
Procedure: Mouse liver non-parenchymal cells were isolated applying a protocol modified from (28). Briefly, mouse livers were perfused with 0.05% collagenase IV (Sigma; Taufkirchen, Germany) in Gey's balanced salt solution, mechanically dissected and further digested in 0.05% collagenase IV in Gey's balanced salt solution for 25 minutes at 37° C. at constant rotation (240 rpm). Hepatocytes and debris were sedimented twice at 40 g and non-parenchymal cells were recovered by centrifugation over a 17% Optiprep (Sigma) gradient at 400 g.
Liver sinusoidal endothelial cells (LSEC) were purified from the non-parenchymal cells as described (29) by magnetic sorting with the ME-9F1 antibody (Miltenyi Biotech, Bergisch-Gladbach, Germany). LSEC were seeded on collagen-coated culture plates (Serva, Heidelberg, Germany). After overnight culture in Iscove's modified Dulbecco's medium supplemented with 5% FCS, non-adherent cells were removed by medium change. Accordingly, Kupffer cells were purified from the non-parenchymal cells by magnetic sorting with biotinylated F4/80 antibody (eBioscience, Frankfurt, Germany) and anti-biotin microbeads (Miltenyi).
Alternatively, hepatocytes were isolated from mouse livers as described (30); and dendritic cells were isolated from mouse spleen by magnetic cell separation for CD11c as described (30).
10^5 LSEC, 10^5 Kupffer cells, or 5×10^3 hepatocytes were seeded into 96-well plates, and used on the following day for stimulation of CD4+CD25− T cells. Alternatively, 5×10^4 dendritic cells, were seeded into 96-well plates, and used on the same day for stimulation of CD4+CD25− T cells. These CD4+CD25− non-regulatory T cells were isolated from mouse spleens by magnetic cell separation, and 5×10^5 purified lymphocytes per well were then stimulated on the indicated antigen presenting cells in serum-free medium (Pan Biotech, Aidenbach, Germany) with solute antibody to CD3 (BD Bioscience, Heidelberg, Germany). After four days of culture, the T cells were harvested and analysed by flow cytometry for the percentage of CD4+CD25+FOXP3+ Treg cells. […]

[1] = parameters: species or system mice; settings: mouse, in vivo, iv
Procedure: (§1) FIG. 7: Targeted delivery of MBP peptides to LSEC with nanoparticles. A) Plasma clearance rates of MBP peptide coupled to ^59Fe-NP (MBP-^59Fe-NP) and ^14C-MBP peptide coupled to unlabeled NP(^14C-MBP-NP). B) Organ distribution of MBP-^59Fe-NP and ^14C-MBP-NP 60 min after intravenous injection. Mean values±s.e.m. are shown (n=4). C) Representative coronal and transversal MR images of mice pre and post injection of unloaded NP or MBP-NP. D) Intravital confocal microscopy of the liver showing uptake of MBP-NP or unloaded NP by LSEC. Nuclei were also stained. right panel: LSEC (FITC-dextran), left panel: quantum dot-labeled NP; scale bar: 20 μm. E) Electron microscopy of liver, 60 min after intravenous injection of MBP-NP or unloaded NP.
(§2) To develop a method for selective delivery of autoantigen to LSEC in vivo, the inventors made use of nanoparticles (NP) that are rapidly cleared from the circulation through uptake by liver cells. Specifically, the inventors took advantage of a polymer-coated nanoparticle (43), which they observed to accumulate selectively in liver sinusoidal endothelium (data not shown). […] Low amounts of radioactivity could be detected in spleen and kidney, whereas uptake into other organs was negligible. […]

[2] = test system: experimental autoimmune encephalomyelitis (EAE) in B10.PL mice; assay: Treatment of EAE with autoantigen-loaded nanoparticles (Example 4); type: in vivo; settings: injected into B10.PL mice one day after EAE induction by Ac1-9 MBP peptide (FIG. 5)
Procedure: For covalent conjugation of neuroantigen peptide (encephalitogenic Ac1-9 peptide derived from the amino acid sequence of myelin basic protein), iron oxide-core nanoparticles were synthesized as described in example 3 and adjusted to a concentration of 6 μmol/L in 50 mM SBB-buffer (pH=9). An equal amount of 1-Ethyl-3-(3-dimethylaminopropyl)carbodiimide (c=[…]), dissolved in a 50 mM SBB-buffer (pH=9), was added. After 5 minutes, a 1000-fold excess of the neuroantigen peptide was added and the solution was incubated under rotation for 2h at room temperature and then overnight at 4° C. On the next day, the solution was filtered under centrifugal force in a filter device (100 kDa, 2500 g, 4° C.) and the remnant resuspended in PBS. This procedure was repeated 20 times to remove all excess peptide. The obtained peptide-particle conjugates were dissolved in PBS and subjected to size-exclusion-chromatography to assure for the absence of free peptide. Then, the iron content was measured to determine the concentration of the peptide-particle suspension.
Results: The thus obtained peptide-loaded nanoparticles or, as control, unconjugated peptide-free nanoparticles were then injected into B10.PL mice (n=6), one day after induction of experimental autoimmune encephalomyelitis (EAE) by immunization to Ac1-9 myelin basic protein peptide (25).

[3] = test system: Splenic CD4+Foxp3− T cells from tg4×Foxp3gfp.KI mice; assay: Treg conversion by LSEC in vitro with nanoparticle-conjugated or free MBP peptide; type: cell-based; settings: co-culture with LSEC, TGFβ 2 ng/ml, MBP peptide 5 ng/ml or equivalent dose, four days, flow cytometry (FIG. 11); in % (unit assumed)
Procedure: FIG. 11: Efficient Treg conversion by LSEC in vitro using nanoparticle-conjugated MBP peptide or free MBP peptide. Splenic CD4+Foxp3− T cells from tg4×Foxp3gfp.KI mice were co-cultured with LSEC in the presence of TGFβ (2 ng/ml) and free MBP peptide (5 ng/ml) or an equivalent dose of MBP peptide coupled to nanoparticles (MBP-NP) for four days. Foxp3 induction in CD4+ T cells was then analyzed by flow cytometry. For statistical analysis, Mann-Whitney test was performed (free MBP: 32.16±1.075; MBP-NP: 29.63±1.558; P=0.2857). n.s.=not significant.
(§3) To further investigate the cellular tropism of administered peptide-nanoparticle conjugates, conventional as well as intravital confocal fluorescence microscopy of the liver was performed, using nanoparticles with a fluorescent quantum dot core (44). Prior to administration of fluorescent MBP peptide-nanoparticle conjugates, recipient mice were injected with FITC-dextran that is rapidly absorbed by LSEC. […] To confirm that delivered peptide can be presented to T cells, Treg conversion in vitro by LSEC in the presence of free MBP peptide or of MBP peptide bound to nanoparticles (MBP-NP) was studied.

[4] = Zeta potential measurement (Malvern Zetasizer Nano-ZS); type: physicochemical; settings: 20° C.
Procedure: FIG. 12: Characteristics of NP and MBP-NP. A) The Zeta potentials of NP and MBP-NP were measured at 20° C. using a Malvern Zetasizer Nano-ZS instrument. […] No differences in size could be detected by B) size exclusion chromatography (MBP-NP: left line; NP: right line) or C) by transmission electron microscopy. For electron microscopy, samples were stained with 1% sodium silicotungstate, pH 7, so that the organic shell appears light and the iron oxide core dark.

[5] = Organ uptake by dynamic magnetic resonance imaging; type: in vivo, mice; settings: FIG. 7C
Procedure: as §1, §2

LSEC = assay: Cellular tropism of peptide-nanoparticle conjugates in liver (intravital confocal microscopy, electron microscopy); type: in vivo, mice
Procedure: as §1, §3

[6] = test system: MBP-induced EAE in B10.PL mice; assay: Prevention of MBP-induced EAE in B10.PL mice; type: in vivo; settings: single intravenous injection one day after EAE-induction, B10.PL mice (FIG. 8A)
Procedure: (§4) FIG. 8: Nanoparticle-based delivery of neuroantigen peptides to LSEC prevents EAE induction. EAE was induced in B10.PL wildtype mice (A, E) or tg4 mice (B) by immunization to MBP. In C57BL/6 wildtype mice (C) or hCD2-ΔkTβRII mice (D), EAE was induced by immunization to MOG. One day after EAE induction, mice were injected once intravenously with PBS (A-E) or neuroantigen peptide-loaded nanoparticles (MBP-NP (A, B, E) or MOG-NP (C, D,). As control, mice received equivalent amounts of unloaded NP (A, C) or unconjugated MBP peptide (B,). E, Twice per week, mice treated with MBP-NP were intraperitoneally injected with Treg-depleting PC61 antibody (MBP-NP/Treg-depleted) or isotype-matched control antibody (MBP-NP). Shown are mean EAE scores±s.e.m. (n=5-7).
(§5) The proposed immunosuppressive effect of MBP-nanoparticles in vivo was first tested in MBP-induced EAE in B10.PL mice (FIG. 8A). […] To confirm the efficacy of the inventive treatment approach in another independent disease model, the effect of nanoparticles loaded with myelin oligodendrocyte glycoprotein (MOG) peptides on the development of MOG-induced EAE was tested in C57BL/6 mice.

EAE in tg4 mice = assay: Prevention of MBP-induced EAE in tg4 mice; type: in vivo; settings: single injection one day after EAE-induction, tg4 mice (FIG. 8B)
Procedure: as §4, §5

[7] = test system: MBP-induced EAE in B10.PL mice; assay: MBP-induced EAE in B10.PL mice with Treg depletion by PC61 antibody; type: in vivo
Procedure: as §4
FIG. 13: Depletion of CD25+Foxp3+CD4+ Treg in vivo by repeated PC61 antibody-administration. B10.PL mice were immunized to MBP peptide and treated on the next day with PBS (n=7) or MBP peptide-coupled nanoparticles (MBP-NP). Mice, which received MBP-NP, were then either treated twice per week with Treg-depleting PC61 antibody (n=5) or non-depleting isotype-matched control antibody (n=6). Mice were sacrificed on day 29 post immunization and spleens were analyzed for Treg depletion efficiency by flow cytometry. Results are depicted as mean % of CD25+Foxp3+of CD4+ T cells±s.e.m. (PBS 17.16±0.3422; MBP-NP+isotype 15.08±0.8594; MBP-NP+PC61 3.160±0.4643; P<0.001). For comparison of multiple groups, one-way ANOVA and Tukey's post test were performed.
As the inventors have shown above that tolerance induction by LSEC required TGFβ signaling to T cells, they reasoned that nanoparticle-based targeting of autoantigen peptides to LSEC should be ineffective in mice with TGFβ-insensitive T cells. […] Thus, it can be concluded that also in vivo, the efficacy of nanoparticle-mediated tolerance induction is dependent on TGFβ signaling to T cells. […]

For “TGFβ: exogenous cytokine added to some stimulation cultures”, the “percentage of CD4+CD25+FOXP3+ Treg cells among stimulated T cells” value (shortened to “percentage”) (CD4+CD25− T cells; LSEC-stimulated T cells, in the presence of TGFβ, four days of culture) was 38%, the “percentage” value (CD4+CD25− T cells; dendritic cell-stimulated T cells, in the presence of exogenous TGFβ, four days of culture) was 7.5% and the “percentage” value (CD4+CD25− T cells; liver cell-stimulated T cells (LSEC, Kupffer cells and hepatocytes), in the presence of exogenous TGFβ) was “at least 20%”.
With “^14C-MBP-NP: 14C-radiolabeled MBP peptide coupled to unlabeled NP (MGNHSGKRE; also: 14C label, nanoparticle conjugate; UniProt P04370 1-9, looked up, fragment)” the “plasma clearance kinetics of radiolabel” value [1] was “cleared with similar kinetics”.
With “MBP-NP: Ac1-9 myelin basic protein peptide covalently conjugated by carbodiimide to polymer-coated iron oxide-core nanoparticles (Ac-MGNHSGKRE; also: carbodiimide-conjugated to polymer-coated iron oxide nanoparticles; UniProt P04370 1-9, looked up, fragment)” the “protection from clinical EAE” value [2] was “complete protection from clinical EAE”, the “Foxp3 induction in CD4+ T cells” value [3] was 29.63±1.558 and the “averaged Zeta-potential” value [4] was −61.6 mV. For the same substance, the “organ uptake by dynamic magnetic resonance imaging” value [5] was “only hepatic targeting”, the “uptake by LSEC by transmission electron microscopy” value (LSEC; 60 min after intravenous injection (FIG. 7E)) was “sizeable internalization” and the “localisation in liver by intravital confocal fluorescence microscopy” value (LSEC; quantum dot core, intravenous injection, FITC-dextran stained LSEC (FIG. 7D)) was “co-localized with FITC-dextran stained LSEC”. The “clinical EAE” value [6] was “lasting and almost complete protection from clinical EAE”, the “clinical EAE” value (EAE in tg4 mice) was “protected from disease” and the “protection from EAE” value ([7]; Treg-depleted mice (repeated PC61 antibody) (FIG. 8E)) was “could not prevent the development of disease”. For the same substance, the “protection from EAE” value ([7]; control mice (isotype-matched control antibody) (FIG. 8E)) was “induced protection from EAE” and the “mean % of CD25+Foxp3+of CD4+ T cells±s.e.m.” value ([7]; spleens, day 29 post immunization, flow cytometry, B10.PL mice (FIG. 13)) was 15.08±0.8594%.
With “free MBP peptide: encephalitogenic Ac1-9 peptide derived from the amino acid sequence of myelin basic protein, not coupled (Ac-MGNHSGKRE; UniProt P04370 1-9, looked up, fragment) [reference compound]” the “Foxp3 induction in CD4+ T cells” value [3] was 32.16±1.075 and the “clinical EAE” value (EAE in tg4 mice) was “developed severe EAE”.
For “MBP-^59Fe-NP: 59Fe-radiolabeled nanoparticles conjugated to non-labeled MBP peptide (MGNHSGKRE; also: conjugated to 59Fe-labelled nanoparticles; UniProt P04370 1-9, looked up, fragment)”, the “plasma clearance kinetics of radiolabel” value [1] was “cleared with similar kinetics”.
